Legend:
[1] = Stability of polymorphs exposed to the air at room temperature for 12 months, purity by HPLC; type: physicochemical; conditions: for Original Purity: before exposure; for Purity (after exposed for 12 months): exposed to the air at room temperature for 12 months
Description: The obtained purity results thereof were shown s follows.
The purities were measured by using high performance liquid chromatography under the following conditions.
Chromatographic Column. […] ODS (150*4.6 mm, 5μ)
Phase A: 11.5% (v/v) of acetonitrile aqueous solution containing 0.01 mol/L of lauryl sodium sulfate and 0.0125 mol/L of dipotassium hydrogen phosphate (adjusted to pH 2.5 with phosphoric acid)
Column Temperature: 40° C.;
Detection Wavelength: 278 nm;

[2] = tested on: human lung cancer and breast cancer cell lines; conditions: cited from earlier work
[3] = tested on: human lung cancer tumor xenograft; conditions: cited from earlier work
human tumor cells = conditions: nude mouse transplanted with human tumor cells; cited from earlier work

N#C/N=C(\NCCCCCCOc1ccc(Cl)cc1)Nc1ccncc1 [Polymorph III, N-(6-(4-chlorophenoxy)hexyl)-N′-cyano-N″-(4-pyridyl)guanidine]
Original Purity [1]: 97.83% | Purity (after exposed for 12 months) [1]: 97.56%

N#C/N=C(\NCCCCCCOc1ccc(Cl)cc1)Nc1ccncc1 [N-(6-(4-chlorophenoxy)hexyl)-N′-cyano-N″-(4-pyridyl)guanidine]
antiproliferative activity in vitro [2]: high antiproliferative activity | antitumor activity in the nude mice model [3]: potent antitumor activity | antitumor activity in vivo (human tumor cells): highly potent antitumor activity

N#C/N=C(\NCCCCCCOc1ccc(Cl)cc1)Nc1ccncc1 [Polymorph IV, N-(6-(4-chlorophenoxy)hexyl)-N′-cyano-N″-(4-pyridyl)guanidine]
Original Purity [1]: 99.59% | Purity (after exposed for 12 months) [1]: 99.45%

N#C/N=C(\NCCCCCCOc1ccc(Cl)cc1)Nc1ccncc1 [Polymorph I, N-(6-(4-chlorophenoxy)hexyl)-N′-cyano-N″-(4-pyridyl)guanidine]
Original Purity [1]: 98.01% | Purity (after exposed for 12 months) [1]: 97.49%

N#C/N=C(\NCCCCCCOc1ccc(Cl)cc1)Nc1ccncc1 [Polymorph II, N-(6-(4-chlorophenoxy)hexyl)-N′-cyano-N″-(4-pyridyl)guanidine]
Original Purity [1]: 99.45% | Purity (after exposed for 12 months) [1]: 99.36%

N#C/N=C(\NCCCCCCOc1ccc(Cl)cc1)Nc1ccncc1 [Polymorph VI, N-(6-(4-chlorophenoxy)hexyl)-N′-cyano-N″-(4-pyridyl)guanidine]
Original Purity [1]: 99.55% | Purity (after exposed for 12 months) [1]: 99.28%

N#C/N=C(\NCCCCCCOc1ccc(Cl)cc1)Nc1ccncc1 [Polymorph V, N-(6-(4-chlorophenoxy)hexyl)-N′-cyano-N″-(4-pyridyl)guanidine]
Original Purity [1]: 95.82% | Purity (after exposed for 12 months) [1]: 95.02%

Source: US20130281494A1, “POLYMORPHS OF N-(6-(4-CHLOROPHENOXY)HEXYL)-N'-CYANO-N"-(4-PYRIDYL)GUANIDINE, AND PREPARATION THEREOF AND USE THEREOF” (Tianjin Michele Sci-Tech Development Co., Ltd., priority 2010, published 2013)
